The text below walks through data of patent US20120329842A1 (priority 2010, published 2012).

Read-outs that look alike come from different tables or passages of the source.

For data set [1], the target named is subclass B2 metallo-β-lactamase CphA (Aeromonas hydrophila, UniProt P26918). The conditions noted are these: cited from earlier work.
The next data set concerns other MBLs. Particulars: cited from earlier work.
The target in data set [2] is T1, IMP-1 (Serratia marcescens, UniProt P52699). Particulars: cited from earlier work.
T1 sequence (P52699 19-246 limits assumed): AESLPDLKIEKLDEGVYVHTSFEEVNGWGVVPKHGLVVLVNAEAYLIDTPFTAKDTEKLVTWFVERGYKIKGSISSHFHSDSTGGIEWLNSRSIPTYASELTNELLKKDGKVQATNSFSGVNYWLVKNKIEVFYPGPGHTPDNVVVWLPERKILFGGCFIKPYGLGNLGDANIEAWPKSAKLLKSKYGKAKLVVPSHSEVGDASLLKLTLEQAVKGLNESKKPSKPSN
Data set [3] deals with T1, IMP-1. The data set is described as follows: biochemical. On the set-up: species or system Pseudomonas aeruginosa.
In another data set the target is Bla2 (Bacillus anthracis, UniProt Q93T40). The data set can be described thus: biochemical. Type of data set: biochemical.
Bla2, sequence (Q93T40 1-256): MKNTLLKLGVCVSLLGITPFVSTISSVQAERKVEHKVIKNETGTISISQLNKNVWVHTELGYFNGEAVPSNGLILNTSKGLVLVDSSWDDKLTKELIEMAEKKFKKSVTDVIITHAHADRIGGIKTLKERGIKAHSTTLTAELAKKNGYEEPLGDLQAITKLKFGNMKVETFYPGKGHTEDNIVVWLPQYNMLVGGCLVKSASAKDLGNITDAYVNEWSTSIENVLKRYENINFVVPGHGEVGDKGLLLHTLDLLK
The target of data set [4] is T1, IMP-1. The conditions noted are these: ratio of Km values.
The target of data set [5] is T1, IMP-1. The conditions noted are these: data from ref. 2; cited from earlier work.
A further data set addresses VIM-1 (Pseudomonas aeruginosa, UniProt A0A0F7KYQ8).
For another data set, the target named is GIM-1 (Pseudomonas aeruginosa, UniProt Q704V1). The conditions noted are these: data from ref. 2; cited from earlier work.
GIM-1, sequence (Q704V1 entry or part of it): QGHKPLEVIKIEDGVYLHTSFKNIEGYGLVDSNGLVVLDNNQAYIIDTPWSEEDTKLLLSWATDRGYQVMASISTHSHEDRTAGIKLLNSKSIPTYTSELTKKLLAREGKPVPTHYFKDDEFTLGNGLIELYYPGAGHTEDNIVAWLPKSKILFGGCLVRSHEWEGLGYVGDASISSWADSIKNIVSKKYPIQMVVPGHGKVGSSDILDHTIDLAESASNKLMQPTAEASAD
For another data set, the system named is SPM-1. Particulars: data from ref. 2; cited from earlier work.
Data set [6] addresses human matrix metalloproteinase 8 (MMP-8) (Homo sapiens, UniProt P22894). The data set is described as follows: Human MMP-8 inhibition, commercial assay kit (Enzo). Particulars: at concentrations up to 100 μM.
Data set [7] relates to O=C(Cc1cccs1)N[C@@H]1C(=O)N2C(C(=O)O)=C(/C=C/c3ccc([N+](=O)[O-])cc3[N+](=O)[O-])CS[C@H]12. The data set can be described thus: purified protein, by the assay type. The conditions noted are these: pH 7.5.
The mark [8] stands for this setting: data from ref. 2; read-out: Km for VIM-1; cited from earlier work.
The mark [9] stands for this setting: read-out: Km for VIM-1; data from ref. 2; cited from earlier work.

subclass B2 metallo-β-lactamase CphA, sequence (P26918 28-254): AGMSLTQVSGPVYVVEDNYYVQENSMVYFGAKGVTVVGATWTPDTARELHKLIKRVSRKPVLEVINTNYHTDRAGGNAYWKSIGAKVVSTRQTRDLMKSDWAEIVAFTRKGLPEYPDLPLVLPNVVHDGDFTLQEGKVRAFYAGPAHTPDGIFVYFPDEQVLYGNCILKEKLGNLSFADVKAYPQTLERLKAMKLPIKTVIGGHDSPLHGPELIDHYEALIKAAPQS
human matrix metalloproteinase 8 (MMP-8), sequence (P22894 101-467): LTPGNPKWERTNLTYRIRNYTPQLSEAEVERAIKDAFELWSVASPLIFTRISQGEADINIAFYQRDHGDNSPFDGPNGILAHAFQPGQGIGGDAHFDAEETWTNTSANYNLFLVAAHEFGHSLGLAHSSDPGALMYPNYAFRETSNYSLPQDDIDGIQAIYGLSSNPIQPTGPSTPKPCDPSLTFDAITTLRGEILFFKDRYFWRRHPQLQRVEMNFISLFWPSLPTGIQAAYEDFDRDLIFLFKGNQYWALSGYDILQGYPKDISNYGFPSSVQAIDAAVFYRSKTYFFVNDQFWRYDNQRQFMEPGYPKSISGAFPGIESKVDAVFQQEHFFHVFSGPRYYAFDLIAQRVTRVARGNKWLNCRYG

As for `O=C(O)c1ccccn1` [pyridine-2-carboxylic acid], the Ki in [1] (read-out: Ki against CphA) is 5.7 µM. The “activity against other MBLs” value in the data set on other MBLs is recorded as “little or no activity”. In addition, on IMP-1 [2], the “inhibitory effect on IMP-1” value is recorded as “only a very weak inhibitory effect”.
Consider `O=C(O)C1CS[C@H](c2ccccc2O)N1` (stereo partly drawn) [Compound 160, (R)-2-(2-hydroxyphenyl)thiazolidine-4-carboxylic acid], for which the IC50 at IMP-1 [3] (read-out: IMP-1 IC50) was found to be 29.2 µM; on Bla2 (read-out: Bla2 IC50), 16 µM.
For `CC(=O)Nc1cccc(C2=N[C@@H](C(=O)O)C(C)(C)S2)c1` [Compound 368, (S)-2-(3-acetamidophenyl)-4,5-dihydro-5,5-dimethyolthiazole-4-carboxylic acid], at IMP-1 [3] (read-out: IMP-1 IC50), the IC50 amounted to 60 µM.
penicillin G: on IMP-1 [4], the “fold less tight binding to IMP-1 than imipenem” value was roughly 13 ×. The “fold less tight binding to IMP-1 than nitrocefin” value on IMP-1 [4] was roughly 20 ×. Also, the Michaelis-Menten constant (Km) was 520 µM on IMP-1 [5], 841 µM on VIM-1 (setting [8]), 46 µM at GIM-1 and 38 µM in the data set on SPM-1.
With `COC(=O)[C@@H]1CSC(CNC(=O)OC(C)(C)C)=N1` [Compound 369, tert-butyl ((R)-4-(methoxycarbonyl)-4,5-dihydrothiazol-2-yl)methylcarbamate], the IC50 on Bla2 (read-out: Bla2 IC50) stood at 110 µM.
Consider `CC(C)(C)OC(=O)Nc1cccc(C2=NC(C(=O)O)CS2)c1` (stereo not drawn) [Compound 361, 2-[3-(tert-butoxycarbonylamino)phenyl]-4,5-dihydrothiazole-4-carboxylic acid], for which, at Bla2 (read-out: Bla2 IC50), the 50% inhibitory concentration (IC50) was 70 µM.
For the compound `O=C(O)[C@@H]1CSC(c2ccccc2)=N1` [Compound 1, (R)-4,5-dihydro-2-phenylthiazole-4-carboxylic acid], the “inhibition of human MMP-8” value in data set [6] is reported as “did not exhibit inhibition”.
With `C[C@@H](O)[C@H]1C(=O)N2C(C(=O)O)=C(S[C@@H]3CN[C@H](C(=O)N(C)C)C3)[C@H](C)[C@H]12` [Meropenem], the Michaelis constant (Km) at VIM-1 (setting [8]) is 48 µM; on GIM-1, 2.7 µM; in the data set on SPM-1, 281 µM.
For the compound `CC1(C)S[C@@H]2[C@H](NC(=O)[C@H](N)c3ccccc3)C(=O)N2[C@H]1C(=O)O` [Ampicillin], the Km on IMP-1 [5] was 200 µM; on VIM-1 (setting [8]), 917 µM; on GIM-1, 20 µM; in the data set with SPM-1, 72 µM.
On to `CC(=O)OCC1=C(C(=O)O)N2C(=O)[C@@H](NC(=O)Cc3cccs3)[C@H]2SC1` [Cephalothin], for which the Km was 21 µM at IMP-1 [5], 53 µM on VIM-1 (setting [9]), 16 µM on GIM-1 and 4 µM with SPM-1.
Turning to `C[C@@H](O)[C@H]1C(=O)N2C(C(=O)O)=C(SCCN=CN)C[C@H]12` [Imipenem, imipenem], the results for the Km on VIM-1 (setting [9]) and on GIM-1 were 1.5 µM and 27 µM, respectively.
Take `O=C(Cc1cccs1)N[C@@H]1C(=O)N2C(C(=O)O)=C(/C=C/c3ccc([N+](=O)[O-])cc3[N+](=O)[O-])CS[C@H]12` [Nitrocefin, nitrocefin]: the Km was 27 µM on IMP-1 [5], 17 µM at VIM-1 (setting [9]), 5.8 µM at GIM-1 and 4 µM in the data set with SPM-1.
Consider `Nc1cccc(C2=NC(C(=O)O)CS2)c1` (stereo not drawn) [Compound 362, 2-(3-aminophenyl)-4,5-dihydrothiazole-4-carboxylic acid], for which the IC50 at IMP-1 [3] (read-out: IMP-1 IC50) turned out to be 100 µM; at Bla2 (read-out: Bla2 IC50), 20 µM. Also, at Bla2 (read-out: Bla2 KI), the Ki came to 15 µM.
For `O=C(O)c1csc(Cc2ccccc2)n1` [Compound 2, 2-benzylthiazole-4-carboxylic acid], the “inhibition of human MMP-8” value in [6] was “did not exhibit inhibition”.
In turn, `C[C@H](CS)C(=O)N1CCC[C@H]1C(=O)O` [Captopril, captopril] came in with an IC50 on Bla2 of 25 µM.
With IMP-1 (Serratia marcescens), the Michaelis constant (Km) in [7] was 25 µM.
At IMP-1 [3], `O=C(NCc1ccccc1)c1cccc(O)n1` [Compound 3, N-benzyl-6-hydroxypyridine-2-carboxamide] yielded an IC50 of 13.9 µM and an inhibition constant Ki of 3 to 19 µM.
For `O=c1ccc(-c2ccccc2)cn1O` [Compound 4, 1-hydroxy-5-phenylpyridin-2-one], in that order: 12 µM and 3 to 19 µM.
Consider `CC1(C)SC(c2ccc(Br)cc2)=N[C@H]1C(=O)O` [Compound 365, (S)-2-(4-bromophenyl)-4,5-dihydro-5,5-dimethylthiazole-4-carboxylic acid], for which the IC50 at IMP-1 [3] (read-out: IMP-1 IC50) was found to be 150 µM.
As to `O=C(O)c1cccc(C(=O)O)n1` [pyridine-2,6-dicarboxylic acid], the “inhibition of CphA activity” value in data set [1] is listed as “potently inhibit”. In addition, the “inhibitory effect on IMP-1” value on IMP-1 [2] is on record as “potently inhibit”.

Usually Ki stands for the equilibrium dissociation constant of an inhibitor or competing ligand from its target. For orientation: IC50 means the concentration that gives 50% inhibition. Usually Km stands for the concentration of substrate that gives half-maximal velocity.
